Test results taken from paper PMC7382296, “Discovery of potent thrombin inhibitors from a protease-focused DNA-encoded chemical library” (Proceedings of the National Academy of Sciences of the …, 2020).

Target: T1, thrombin (Homo sapiens, UniProt P00734)
T1 construct: gene F2
Experiment: thrombin inhibition dose-response, apparent Ki
Assay type: biochemical

CNC(=O)[C@@H]1CN(C(=O)[C@H](Cc2ccccc2CNC(=N)N)NC(=O)N(C)C2CCOc3ccccc32)C[C@H]1c1ccc(OC)cc1 (stereo partly shown) [compound 5]
Ki: 1 nM
